Consider 76 molecules from the RepoRT retention time repository (doi:10.1021/acs.analchem.2c02893).

The nature of this series: RP, Thermo Scientific Acclaim RSLC 120 C18, 100 × 2.1 mm, 2.2 µm, 30 °C, 0.2 mL/min, estimated dead time 1.1 min; A: 90% water + 10% methanol + 0.01% formic acid + 5 mM ammonium formate, pH 3.61; B: methanol + 0.01% formic acid + 5 mM ammonium formate, pH 3.61; gradient (min/%B) 0/1 1/1 2/39 13/99.9 15/99.9 15.1/1 20.1/1. Conditions: stereoisomer not certain.
On to `CCc1nn(C)c(C(=O)NCc2ccc(C(C)(C)C)cc2)c1Cl` [Tebufenpyrad], for which the LC retention time was 12.2 min. Take `O=C(Nc1ccccc1)Nc1ccnc(Cl)c1` [Forchlorfenuron]: the LC retention time is 8.53 min. Take `COC(=O)N(OC)c1ccccc1COc1ccn(-c2ccc(Cl)cc2)n1` [Pyraclostrobin]: the LC retention time was 11.2 min. The result for `Cc1occc1C(=O)Nc1ccccc1` [Fenfuram] reads 7.59 min; that for `CC1(C)SC2C(NC(=O)C(N)c3ccccc3)C(=O)N2C1C(=O)O` (stereo unspecified) [Ampicillin], 4.21 min.

As to `CN1CCN(CCCN2c3ccccc3Sc3ccccc32)CC1` [Perazine], the LC retention time is 8.8 min. With `COc1cccc(C2(O)CCCCC2CN)c1` (stereo unspecified) [Tramadol-N-bisdesmethyl (dinor-tramadol)], the LC retention time is 5.19 min. Consider `CCCc1nn(C)c2c(=O)[nH]c(-c3cc(S(=O)(=O)N4CCN(CCO)CC4)ccc3OCC)nc12` [Sildenafil-Hydroxyhomo], for which the LC retention time was 7.83 min. The result for `CC(=O)Nc1c(I)c(NC(C)=O)c(I)c(C(=O)O)c1I` [Diatrizoate (Amidotrizoate acid)] reads 2.79 min; that for `COP(=O)(OC)OC(C)=CC(=O)N(C)C` [Dicrotophos], 4.5 min; that for `CCCC(NC)C(=O)c1ccc2c(c1)OCO2` (stereo unspecified) [Pentylone], 4.99 min.

For `CCOP(=O)(OCC)Oc1ccc([N+](=O)[O-])cc1` [Paraoxon], the LC retention time is 8.01 min. Consider `CCCN(CCC)c1c([N+](=O)[O-])cc(C(C)C)cc1[N+](=O)[O-]` [Isopropalin], for which the LC retention time is 13.2 min. As for `Cc1c(C(=O)c2cccc3ccccc23)c2cccc3c2n1C(CN1CCOCC1)CO3` (stereo unspecified) [WIN-55-212-2], the LC retention time is 10.9 min. As for `CCCCCn1cc(C(=O)c2ccc(CC)c3ccccc23)c2ccccc21` [JWH-210], the LC retention time is 13.2 min.

As for `c1ccc2scnc2c1` [Benzothiazole (BTH)], the LC retention time was 6.88 min.

Consider `CCN(Cc1ccc(Cl)nc1)C(=C[N+](=O)[O-])NC` [Nitenpyram], for which the LC retention time is 3.9 min. With `CC(=O)OCC(=O)C1(O)C(C)CC2C3CCC4=CC(=O)C=CC4(C)C3(F)C(O)CC21C` (stereo unspecified) [Betamethasone acetate] the figure was 9.37 min; with `CCC1OC(=O)C(C)C(OC2CC(C)(OC)C(O)C(C)O2)C(C)C(OC2OC(C)CC(N(C)C)C2O)C(C)(O)CC(C)C(=O)C(C)C(O)C1(C)O` (stereo unspecified) [Erythromycin], 8 min; with `CCNC(C)C(=O)c1ccc(C)cc1` (stereo unspecified) [MEC (4-)], 4.74 min.

As to `COP(=S)(OC)Oc1ccc(S(N)(=O)=O)cc1` [Cythioate], the LC retention time was 6.19 min. As for `COc1cc(C=C2CCCC(=Cc3ccc(O)c(OC)c3)C2=O)ccc1O` [Cyclovalone], the LC retention time was 9.59 min. Take `CNC(=O)C(C)SCCSP(=O)(OC)OC` (stereo unspecified) [Vamidothion]: the LC retention time was 5.02 min. Consider `CON=C(C(=O)NC1C(=O)N2C(C(=O)O)=C(CSC(=O)c3ccco3)CSC12)c1csc(N)n1` (stereo unspecified) [Ceftiofur], for which the LC retention time is 5.44 min. `C=CCc1ccccc1OCC(O)CNC(C)C` (stereo unspecified) [Alprenolol]: the LC retention time was 6.71 min. Regarding `CCCCCCn1cc(C(=O)c2cccc3ccccc23)cc1-c1ccccc1` [JWH-147], the LC retention time was 13.3 min.

As for `CC(C)C1CCC(C(=O)NC(Cc2ccccc2)C(=O)O)CC1` (stereo unspecified) [Nateglinide], the LC retention time was 10.4 min.

Regarding `Cc1ccccc1N1C(=O)c2cc(S(N)(=O)=O)c(Cl)cc2NC1C` (stereo unspecified) [Metolazone], the LC retention time was 6.08 min. The result for `NN1CC(=O)N2C(Cc3c([nH]c4ccccc34)C2c2ccc3c(c2)OCO3)C1=O` (stereo unspecified) [Tadalafil-Amino] reads 7.84 min; that for `CCOP(=S)(OCC)Oc1nc(Cl)c(Cl)cc1Cl` [Chlorpyriphos], 12.7 min; that for `CN(C)C(=N)N=C(N)N` [Metformin], 1.39 min. Take `CNC(C)C(=O)c1ccc(F)cc1` (stereo unspecified) [Methcathinone (4-F-/ 4-FMC. Flephedrone)]: the LC retention time was 3.91 min.

As for `CC(COc1ccccc1)NC(C)C(O)c1ccc(O)cc1` (stereo unspecified) [Isoxsuprine], the LC retention time is 5.28 min.

Regarding `COP(=O)(OC)OC(=CCl)c1cc(Cl)c(Cl)cc1Cl` [Tetrachlorvinphos (Stirofos)], the LC retention time is 10.6 min.

In the case of `O=C(Nc1cccc2ccccc12)c1cn(CCCCCF)c2ccncc12` [PCN-5F], the LC retention time was 11.8 min.

As for `CCC(C)(C)c1ccc(CC(C)CN2CC(C)OC(C)C2)cc1` (stereo unspecified) [Amorolfine], the LC retention time was 12.9 min.

Turning to `CCC(C)Nc1c([N+](=O)[O-])cc(C(C)(C)C)cc1[N+](=O)[O-]` (stereo unspecified) [Butralin], the LC retention time was 13 min.

Turning to `c1cc2c(cc1CN1CCNCC1)OCO2` [Piperazine -1-Piperonyl], the LC retention time was 4.22 min. Consider `CCC[N+]12C(O)C(CC)C3CC1C1N(C)c4ccccc4C14CC2C3C4O` (stereo unspecified) [Prajmaline], for which the LC retention time is 6.07 min. The result for `CCCOC(=O)c1ccc(O)cc1` [Propylparaben] reads 8.36 min; that for `CC#CC1(O)CCC2C3CCC4=CC(=O)CCC4=C3C(c3ccc(N(C)C)cc3)CC21C` (stereo unspecified) [Mifepristone], 11.1 min; that for `CN(C)CCCN1c2ccccc2CCc2ccccc21` [Imipramine], 8.08 min. Take `CC(C)CC(N(C)C)C1(c2ccc(Cl)cc2)CCC1` (stereo unspecified) [Sibutramine]: the LC retention time is 8.66 min.

On to `CNC(=O)Nc1ccc(Cl)c(Cl)c1` [3-4-(dichlorophenyl)-3-methyl urea], for which the LC retention time was 8.51 min. The result for `C1=Cc2ccccc2Nc2ccccc21` [Iminostilbene] reads 10.1 min. `O=C1CN=C(c2ccccc2)c2cc(Cl)ccc2N1CC1CC1` [Prazepam]: the LC retention time is 10.6 min.

With `CCCOc1ccc(S(=O)(=O)NCCC2CCCN2C)cc1-c1nc2c(CCC)nn(C)c2c(=O)[nH]1` (stereo unspecified) [Udenafil], the LC retention time was 7.83 min.

As to `CN(CCOc1ccc(CC2SC(=O)NC2=O)cc1)c1ccccn1` (stereo unspecified) [Rosiglitazone], the LC retention time is 6.98 min. As for `CC(=O)Nc1ccc(OCC(O)CNC(C)C)cc1` (stereo unspecified) [Practolol], the LC retention time is 3.34 min. Regarding `CNC(=O)Oc1ccccc1C1OCCO1` [Dioxacarb], the LC retention time is 5.16 min. In the case of `O=Cc1ccccc1Nc1ccccc1Cl` [2-(2-(Chlorophenyl)amino)benzaldehyde], the LC retention time is 11.4 min. Turning to `Nc1cc(Cl)c(NC2=NCCN2)c(Cl)c1` [Apraclonidin], the LC retention time was 3.09 min. With `CCNC(C)Cc1ccc2c(c1)OCO2` (stereo unspecified) [MDEA] the figure was 4.39 min; with `O=C(c1cccc(F)c1)N1CCC(N2CCN(c3ccccc3)CC2)CC1` [CC-2201], 11.3 min; with `CC(C)Nc1nc(Cl)nc(NC2CC2)n1` [Cyprazin], 8.22 min. With `CC1(C)CON(Cc2ccccc2Cl)C1=O` [Clomazone  (Command)] the figure was 8.89 min.

For `COC(=O)C1C2CC3c4[nH]c5cc(OC)ccc5c4CCN3CC2CC(OC(=O)c2cc(OC)c(OC)c(OC)c2)C1OC` (stereo unspecified) [Reserpine], the LC retention time is 8.47 min. As to `O=C(NC(=O)c1c(F)cccc1F)Nc1cc(Cl)c(OC(F)(F)C(F)F)c(Cl)c1` [Hexaflumuron], the LC retention time was 11.8 min. For `CNC(=O)CSP(=S)(OC)OC` [Dimethoate], the LC retention time is 5.23 min. As to `CN(C)C(=O)SCCCCOc1ccccc1` [Fenothiocarb], the LC retention time is 10.7 min. With `OCc1cc(C(O)CNCCCCCCOCCCCc2ccccc2)ccc1O` (stereo unspecified) [Salmeterol], the LC retention time is 8.83 min. `O=C1OC(c2ccc(O)cc2)(c2ccc(O)cc2)c2ccccc21` [Phenolphthalein]: the LC retention time was 7.06 min. The result for `C[Si](Cn1cncn1)(c1ccc(F)cc1)c1ccc(F)cc1` [Flusilazole] reads 10.5 min; that for `Nc1nc(N)nc(N)n1` [Melamine], 1.45 min; that for `CCOC(=O)C(Cl)=Cc1cc(N2C(=O)C3=C(CCCC3)C2=O)ccc1Cl` [Cinidon-ethyl], 12.4 min. In the case of `COP(=S)(OC)Oc1ccc([N+](=O)[O-])cc1` [Parathion-methyl], the LC retention time was 9.24 min. With `CC1CC2C3CCC4=CC(=O)C=CC4(C)C3(Cl)C(O)CC2(C)C1(OC(=O)c1ccco1)C(=O)CCl` (stereo unspecified) [Mometasone fuorate] the figure was 10.6 min.

Turning to `CCOC(=O)C1=CC(OC(CC)CC)C(NC(C)=O)C(N)C1` (stereo unspecified) [Oseltamivir], the LC retention time is 6.76 min. Turning to `O=[N+]([O-])/N=C1\NCCN1Cc1ccc(Cl)nc1` [Imidacloprid], the LC retention time is 4.76 min. With `CC(=O)N(C)N(C(=O)C(=O)N(C)C)c1ccccc1` [AMDOPH] the figure was 5.06 min; with `CC=C1CC(C)C(C)(O)C(=O)OCC2=CCN3CCC(OC1=O)C23` (stereo unspecified) [Senecionine], 4.62 min; with `CNc1c(C)n(C)n(-c2ccccc2)c1=O` [Methylaminophenazone (4-)], 4.74 min. The result for `COc1cccc(C2(O)CCCCC2C[N+](C)(C)[O-])c1` (stereo unspecified) [Tramadol-N-oxide] reads 5.24 min. For `CC(C)N1CCN(c2ccc(OCC3COC(Cn4cncn4)(c4ccc(Cl)cc4Cl)O3)cc2)CC1` (stereo unspecified) [Terconazole], the LC retention time was 8.2 min. With `CN(C)CCN1C(=O)c2ccccc2N(C)c2ccccc21` [Dibenzepin] the figure was 5.49 min; with `CCCCCn1cc(C(=O)Nc2ccccc2)c2ccccc21` [SDB-006 N-phenyl], 11.3 min.
